From patent US12129246B1, “Hydroquinazoline derivatives for the treatment of a disease or disorder” (Novartis AG, priority 2023, dated 2024)
Like-named read-outs stand apart in the source and are kept apart here.

What was measured:
human NPR1 = target: T1, human NPR1 (Homo sapiens, UniProt P16066); assay: Cellular cGMP production assay, human NPR1 expressing CHO-K1 cells (CisBio HTRF); assay type: cell-based; settings: for AC50: cGMP production, 30 min at 37° C., 12-point dose-response from 30 μM; for Human NPR1 Amax (% of ANP): maximum cGMP production as percentage of the maximum cGMP produced with ANP
T1 construct: host or cells: CHO-K1
T1 sequence (P16066 33-1061): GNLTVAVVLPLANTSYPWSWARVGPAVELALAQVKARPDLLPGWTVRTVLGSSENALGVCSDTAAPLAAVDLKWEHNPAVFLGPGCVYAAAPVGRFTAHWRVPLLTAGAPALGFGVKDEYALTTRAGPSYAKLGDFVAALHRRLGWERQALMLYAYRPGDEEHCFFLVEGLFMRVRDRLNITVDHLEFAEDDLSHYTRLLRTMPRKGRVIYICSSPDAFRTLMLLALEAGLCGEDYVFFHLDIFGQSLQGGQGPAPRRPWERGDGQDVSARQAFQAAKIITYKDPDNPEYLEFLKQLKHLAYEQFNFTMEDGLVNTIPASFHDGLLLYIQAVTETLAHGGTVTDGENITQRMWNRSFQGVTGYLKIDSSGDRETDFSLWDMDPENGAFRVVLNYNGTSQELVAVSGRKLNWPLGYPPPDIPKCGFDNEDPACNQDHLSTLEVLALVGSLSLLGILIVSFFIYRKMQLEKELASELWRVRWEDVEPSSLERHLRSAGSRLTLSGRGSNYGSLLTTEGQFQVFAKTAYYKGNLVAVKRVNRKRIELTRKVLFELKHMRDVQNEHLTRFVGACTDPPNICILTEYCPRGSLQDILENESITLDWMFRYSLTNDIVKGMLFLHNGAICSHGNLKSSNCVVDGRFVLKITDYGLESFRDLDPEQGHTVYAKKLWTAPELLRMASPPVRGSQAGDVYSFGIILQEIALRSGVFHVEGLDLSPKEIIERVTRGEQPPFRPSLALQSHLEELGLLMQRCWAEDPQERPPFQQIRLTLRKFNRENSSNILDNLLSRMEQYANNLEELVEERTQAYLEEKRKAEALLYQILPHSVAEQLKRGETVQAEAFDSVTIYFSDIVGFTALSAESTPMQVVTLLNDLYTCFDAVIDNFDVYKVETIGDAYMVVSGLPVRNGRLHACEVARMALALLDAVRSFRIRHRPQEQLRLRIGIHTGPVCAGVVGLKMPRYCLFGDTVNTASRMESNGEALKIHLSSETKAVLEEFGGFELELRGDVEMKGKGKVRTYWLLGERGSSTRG
Method in brief: (§1)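 CHO-K1 cells expressing human or cynomolgus NPR1 treated with compound (12-point, 3-fold dilutions from 30 μM top) in PBS+0.1% BSA with 1 mM IBMX, 30 min at 37° C. After lysis, cGMP quantified by HTRF competition (cGMP-d2/anti-cGMP-cryptate, 1 h RT, 665 nm emission) against a calibrator standard curve.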

monkey NPR1 = monkey NPR1 (Macaca fascicularis, UniProt A0A7N9DBT9); assay: Cellular cGMP production assay, monkey NPR1 expressing CHO-K1 cells (CisBio HTRF); assay type: cell-based; settings: for Monkey NPR1 Amax (% of ANP): maximum cGMP production as percentage of the maximum cGMP produced with ANP
monkey NPR1, sequence (A0A7N9DBT9 entry or part of it): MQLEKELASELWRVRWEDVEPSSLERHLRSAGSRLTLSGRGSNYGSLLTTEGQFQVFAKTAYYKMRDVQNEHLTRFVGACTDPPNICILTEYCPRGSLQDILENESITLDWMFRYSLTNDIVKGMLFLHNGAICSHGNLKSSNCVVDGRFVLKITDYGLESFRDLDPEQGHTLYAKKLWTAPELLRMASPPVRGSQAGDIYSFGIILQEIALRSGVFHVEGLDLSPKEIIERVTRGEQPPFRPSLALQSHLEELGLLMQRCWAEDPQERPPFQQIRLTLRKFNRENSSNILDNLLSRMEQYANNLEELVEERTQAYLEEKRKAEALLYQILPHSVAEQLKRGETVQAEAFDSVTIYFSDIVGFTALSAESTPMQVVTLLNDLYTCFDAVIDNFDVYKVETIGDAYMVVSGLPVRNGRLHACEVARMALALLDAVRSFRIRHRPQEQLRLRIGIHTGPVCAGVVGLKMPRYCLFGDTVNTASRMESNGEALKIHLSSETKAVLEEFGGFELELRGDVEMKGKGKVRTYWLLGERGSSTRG
Method in brief: as §1

[1] = cGMP production, monkey NPR1 CHO-K1 cells, 30 min at 37° C., 12-point dose-response from 30 μM, read-out: Monkey NPR1 AC50

Compound	AC50 (human NPR1) [nM]	Human NPR1 Amax (% of ANP) (human NPR1)	AC50 (monkey NPR1; [1]) [nM]	Monkey NPR1 Amax (% of ANP) (monkey NPR1; monkey NPR1 CHO-K1 cells)	AC50 (monkey NPR1) [nM]
CC[C@@H](Nc1nc2c(c(N[C@@H](CN3CCCCCC3)c3cnn(C)c3)n1)C[C@H](c1ccccc1)CC2)[C@H]1CC[C@H](C(=O)O)CC1 [Compound 51, (1R,4r)-4-((R)-1-(((R)-4-(((R)-2-(azepan-1-yl)-1-(1-methyl-1H-pyrazol-4-yl)ethyl)amino)-6-phenyl-5,6,7,8-tetrahydroquinazolin-2-yl)amino)propyl)cyclohexane-1-carboxylic acid]	187	106.105 % of ANP	110	104.734 % of ANP	–
CC[C@H]([C@H]1CC[C@H](C(=O)O)CC1)N(C)c1nc2c(c(N[C@@H](CN3C4CCCC3CC4)c3cnn(C)c3)n1)C[C@H](c1ccccc1)CC2 [Compound 103, (1R,4r)-4-((1R)-1-(((6R)-4-(((1R)-2-(8-azabicyclo[3.2.1]octan-8-yl)-1-(1-methyl-1H-pyrazol-4-yl)ethyl)amino)-6-phenyl-5,6,7,8-tetrahydroquinazolin-2-yl)(methyl)amino)propyl)cyclohexane-1-carboxylic acid]	393	101.239 % of ANP	–	106.030 % of ANP	350
CC[C@H]([C@H]1CC[C@H](C(=O)O)CC1)N(C)c1nc2c(c(N[C@@H](CN3CCC(C)CC3)c3cnn(C)c3)n1)C[C@H](c1ccccc1)CC2 [Compound 145, (1R,4r)-4-((R)-1-(methyl((R)-4-(((R)-1-(1-methyl-1H-pyrazol-4-yl)-2-(4-methylpiperidin-1-yl)ethyl)amino)-6-phenyl-5,6,7,8-tetrahydroquinazolin-2-yl)amino)propyl)cyclohexane-1-carboxylic acid]	1050	97.636 % of ANP	900	103.150 % of ANP	–
CC[C@@H](Nc1nc2c(c(N[C@@H](CN3CCC[C@H](C)C3)c3cnn(CC)c3)n1)CN(c1cccc(F)c1)CC2)[C@H]1CC[C@H](C(=O)O)CC1 [Compound 76, (1R,4r)-4-((R)-1-((4-(((R)-1-(1-ethyl-1H-pyrazol-4-yl)-2-((S)-3-methylpiperidin-1-yl)ethyl)amino)-6-(3-fluorophenyl)-5,6,7,8-tetrahydropyrido[4,3-d]pyrimidin-2-yl)amino)propyl)cyclohexane-1-carboxylic acid]	247	100.752 % of ANP	147	100.861 % of ANP	–
CC[C@H]([C@H]1CC[C@H](C(=O)O)CC1)N(C)c1nc2c(c(N[C@H](c3cnn(C)c3)C(C)(C)N3CCCCC3)n1)C[C@H](c1ccccc1)CC2 [Compound 173, (1R,4r)-4-((R)-1-(methyl((R)-4-(((R)-2-methyl-1-(1-methyl-1H-pyrazol-4-yl)-2-(piperidin-1-yl)propyl)amino)-6-phenyl-5,6,7,8-tetrahydroquinazolin-2-yl)amino)propyl)cyclohexane-1-carboxylic acid]	4200	102.335 % of ANP	2580	102.204 % of ANP	–
CC[C@H](N(C)c1nc2c(c(N[C@@H](CN3C4CCCC3CC4)c3cnn(C)c3)n1)C[C@](C)(c1ccccc1)CC2)C12CC(C(=O)O)(C1)C2 [Compound 69, 3-((1S)-1-(((6R)-4-(((1R)-2-(8-azabicyclo[3.2.1]octan-8-yl)-1-(1-methyl-1H-pyrazol-4-yl)ethyl)amino)-6-methyl-6-phenyl-5,6,7,8-tetrahydroquinazolin-2-yl)(methyl)amino)propyl)bicyclo[1.1.1]pentane-1-carboxylic acid]	234	98.634 % of ANP	–	100.449 % of ANP	220
CC[C@H]([C@H]1CC[C@H](C(=O)O)CC1)N(C)c1nc2c(c(N[C@@H](CN3CCC[C@H](C)C3)c3cnn(C)c3)n1)CN(c1cccc(Cl)c1)CC2 [Compound 170, (1R,4r)-4-((R)-1-((6-(3-chlorophenyl)-4-(((R)-1-(1-methyl-1H-pyrazol-4-yl)-2-((S)-3-methylpiperidin-1-yl)ethyl)amino)-5,6,7,8-tetrahydropyrido[4,3-d]pyrimidin-2-yl)(methyl)amino)propyl)cyclohexane-1-carboxylic acid]	2740	97.591 % of ANP	790	124.109 % of ANP	–
CC[C@H]([C@H]1CC[C@H](C(=O)O)CC1)N(C)c1nc2c(c(N[C@@H](CN3C4CCCC3CC4)c3cnn(C)c3)n1)C[C@](C)(c1ccccc1)CC2 [Compound 34, (1R,4r)-4-((1R)-1-(((6R)-4-(((1R)-2-(8-azabicyclo[3.2.1]octan-8-yl)-1-(1-methyl-1H-pyrazol-4-yl)ethyl)amino)-6-methyl-6-phenyl-5,6,7,8-tetrahydroquinazolin-2-yl)(methyl)amino)propyl)cyclohexane-1-carboxylic acid]	146	95.375 % of ANP	–	100.553 % of ANP	91
CC[C@@H](Nc1nc2c(c(N[C@@H](CN3CCCC3)c3ccccc3)n1)C[C@@H](c1ccccc1)CC2)[C@H]1CC[C@H](C(=O)O)CC1 [Compound 115, (1R,4r)-4-((R)-1-(((S)-6-phenyl-4-(((R)-1-phenyl-2-(pyrrolidin-1-yl)ethyl)amino)-5,6,7,8-tetrahydroquinazolin-2-yl)amino)propyl)cyclohexane-1-carboxylic acid]	474	111.049 % of ANP	387	106.285 % of ANP	–
CC[C@H]([C@H]1CC[C@H](C(=O)O)CC1)N(C)c1nc2c(c(N[C@@H](CN3CCCC4(CCOC4)C3)c3cnn(CC)c3)n1)C[C@H](c1ccccc1)CC2 (stereo partly drawn) [Compound 162, (1R,4r)-4-((1R)-1-(((6R)-4-(((1R)-1-(1-ethyl-1H-pyrazol-4-yl)-2-(2-oxa-7-azaspiro[4.5]decan-7-yl)ethyl)amino)-6-phenyl-5,6,7,8-tetrahydroquinazolin-2-yl)(methyl)amino)propyl)cyclohexane-1-carboxylic acid]	1700	83.721 % of ANP	1310	89.971 % of ANP	–
CC[C@@H](Nc1nc2c(c(N[C@@H](CN3CCCCC3)c3cnn(C)c3)n1)CN(c1cccc(F)c1)CC2)[C@H]1CC[C@H](C(=O)O)CC1 [Compound 55]	194	92.712 % of ANP	142	93.391 % of ANP	–
CC[C@@H](N(C)c1nc2c(c(N[C@@H](CN3C4CCCC3CCC4)c3cnn(C)c3)n1)C[C@](C)(c1ccccc1)CC2)C12CC(C(=O)O)(C1)C2 [Compound 27, 3-((R)-1-(((R)-4-(((R)-2-((1S,5S)-9-azabicyclo[3.3.1]nonan-9-yl)-1-(1-methyl-1H-pyrazol-4-yl)ethyl)amino)-6-methyl-6-phenyl-5,6,7,8-tetrahydroquinazolin-2-yl)(methyl)amino)propyl)bicyclo[1.1.1]pentane-1-carboxylic acid]	137	92.458 % of ANP	–	102.654 % of ANP	137
CC[C@H](N(C)c1nc2c(c(N[C@@H](CN3CCC[C@@H](CF)C3)c3cnn(C)c3)n1)C[C@@](C)(c1ccccc1)CC2)C12CC(C(=O)O)(C1)C2 [Compound 36, 3-((S)-1-(((S)-4-(((R)-2-((R)-3-(fluoromethyl)piperidin-1-yl)-1-(1-methyl-1H-pyrazol-4-yl)ethyl)amino)-6-methyl-6-phenyl-5,6,7,8-tetrahydroquinazolin-2-yl)(methyl)amino)propyl)bicyclo[1.1.1]pentane-1-carboxylic acid]	150	101.036 % of ANP	133	101.251 % of ANP	–
